In patent publication US7498343B2, “Mycobacterial inhibitors” (priority 2002, dated 2009):
In brackets after ≈: the same amount, converted by molar mass. Where two headings read alike, the source gives them in different places.

What was measured:
[1] = system: Mycobacterium tuberculosis (strain H37RV); assay: In-vitro method for testing compounds against M. tuberculosis (resazurin growth inhibition, MIC); type: cell-based; settings: MIC data representing IC90's, 7 days incubation, resazurin fluorescence
M. Smegmatis ATCC607 = assay: In-vitro method for testing compounds for anti-bacterial activity against strain M. smegmatis ATCC607 (Alamar Blue growth inhibition); type: cell-based; settings: pIC50 = -logIC50, IC50 in M, 50% inhibitory concentration for bacterial growth, 48 hours incubation; for IC50: Mycolicibacterium smegmatis, ATCC607, 48 h
Summary of the method: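 About 250 CFU/well M. smegmatis ATCC607 in Mueller-Hinton broth exposed to five-fold serial compound dilutions, 48 h at 37 °C, humidified 5% CO2. Growth read by Alamar Blue fluorescence (ex 530/em 590 nm) after 2 h further incubation; % growth inhibition calculated.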

[2] = Mycobacterium tuberculosis, H37RV, 168 h, read-out: MIC
[3] = M. smegmatis ATCC607, read-out: pIC50 (converted)

SMILES	melting point	MIC [1]	pIC50 (M. Smegmatis ATCC607; M. smegmatis ATCC607)	MIC [1, 2]	IC50 (M. Smegmatis ATCC607; [3])	IC50 (M. Smegmatis ATCC607; read-out: pIC50, M. smegmatis ATCC607 (converted))
COc1nc2ccc(Br)cc2cc1C(c1ccc(C)cc1)C(O)(CCN(C)C)c1cccc2ccccc12 (centres unmarked) [Compound 71]	174 °C	0.14 microgram/ml	8.5			
COc1nc2ccc(Br)cc2cc1C(c1ccccc1)C(O)(CCN)c1ccccc1 (centres unmarked) [Compound 9]	204 °C	37.92 microgram/ml	4.5			
CCOc1nc2ccc(Br)cc2cc1C(c1ccccc1)C(O)(CCN(C)C)c1ccccc1 (centres unmarked) [Compound 5]	162 °C	0.33 microgram/ml	7.8			
COc1nc2ccc(Br)cc2cc1C(c1ccccc1)C(O)(CCN(C)C)c1cccc(F)c1F (centres unmarked) [Compound 113]	185 °C	0.27 microgram/ml	8.6			
COc1nc2ccc(Br)cc2cc1C(c1ccccc1)C(O)(CC[N+](C)(C)C)c1ccccc1.[I-] (centres unmarked) [Compound 10]	198 °C			10.3 µg/mL	2510 nM	
COc1nc2ccc(Br)cc2cc1C(c1ccccc1)C(O)(CC[N+](C)(C)[O-])c1ccccc1 (centres unmarked) [Compound 11]	208 °C			41.4 µg/mL (≈ 79.4 µM)	25100 nM	
COc1nc2ccc(Br)cc2cc1C(c1ccccc1)C(O)(CCN(C)C)c1cccc(F)c1F (centres unmarked) [Compound 114]	210 °C	43.01 microgram/ml	5.9			
CN(C)CCC(O)(c1ccccc1)C(c1ccccc1)c1cnc2ccc(Br)cc2c1 (centres unmarked) [Compound 8]	180 °C		5.7	23.8 µg/mL (≈ 50.1 µM)		
COc1nc2ccc(Br)cc2cc1C(c1ccc(C)cc1)C(O)(CCN(C)C)c1cccc2ccccc12 (centres unmarked) [Compound 72]	178 °C	3.59 microgram/ml	6.9			
COc1nc2ccc(Br)cc2cc1C(c1ccccc1)C(O)(CCN(C)C)c1ccc2c(c1)OCCO2 (racemic) [Compound 77]		8.93 microgram/ml	7.2			
COc1nc2ccc(Br)cc2cc1C(c1ccccc1)C(O)(CCCN(C)C)c1cccc2ccccc12 (single isomer, unassigned) [Compound 199]		47.47 microgram/ml	6.5			
COc1nc2cc(C)c(Br)cc2cc1C(c1ccccc1)C(O)(CCN(C)C)c1cc(F)cc(F)c1 (single isomer, unassigned) [Compound 227]		1.76 microgram/ml	7.5			
COc1nc2ccc(Br)cc2cc1C(c1ccc(Cl)cc1)C(O)(CCN(C)C)c1cccc2ccccc12 (racemic) [Compound 73]		23.49 microgram/ml	8.0			
COc1nc2ccc(Br)cc2cc1C(c1ccccc1)C(O)(CCN(C)C)c1cccc2ccccc12 (centres unmarked) [Compound 13]		44.13 microgram/ml				200 nM
COc1nc2ccc(Br)cc2cc1C(c1ccccc1)C(O)(CCN(C)C)c1ccc2ccccc2c1 (racemic) [Compound 45]		1.76 microgram/ml	8.0			
COc1nc2ccc(Br)cc2cc1C(c1ccccc1)C(O)(CCN(C)C)c1cccs1 (single isomer, unassigned) [Compound 20]		40.63 microgram/ml	5.9			
COc1nc2ccc(Br)cc2cc1C(c1ccccc1)C(O)(CCCCN(C)C)c1ccccc1 (single isomer, unassigned) [Compound 66]		1.69 microgram/ml	4.7			
COc1nc2ccc(F)cc2cc1C(c1ccccc1)C(O)(CCN(C)C)c1cc(F)cc(F)c1 (racemic) [Compound 207]		48.05 microgram/ml	5.2			
COc1nc2ccc(Br)cc2cc1C(c1ccccc1)C(O)(CCc1ccccc1)CCN(C)C (racemic) [Compound 95]		16.87 microgram/ml	6.9			
COc1ccc2nc(OC)c(C(c3ccccc3)C(O)(CCN(C)C)c3cccc4ccccc34)cc2c1 (single isomer, unassigned) [Compound 97]		20.17 microgram/ml	5.9			
COc1nc2ccc(Br)cc2cc1C(c1ccccc1)C(O)(CCN1CCSCC1)c1ccccc1 (racemic) [Compound 55]		44.77 microgram/ml	5.1			
CN(C)CCC(O)(c1cccc2ccccc12)C(c1ccccc1)c1cc2cc(Br)ccc2[nH]c1=O (single isomer, unassigned) [Compound 138]		8.58 microgram/ml	6.6			
COc1nc2ccccc2cc1C(c1ccccc1)C(C)(O)CCN(C)C (single isomer, unassigned) [Compound 43]		44.34 microgram/ml	4.4			

SMILES	melting point	MIC [1]	pIC50 (M. Smegmatis ATCC607; M. smegmatis ATCC607)	MIC [1, 2]	IC50 (M. Smegmatis ATCC607; [3])	IC50 (M. Smegmatis ATCC607; read-out: pIC50, M. smegmatis ATCC607 (converted))
COc1nc2ccccc2cc1C(c1ccccc1)C(O)(CCN(C)C)c1cccc2ccccc12 (racemic) [Compound 91]		1.51 microgram/ml	7.5			
COc1nc2cc(C)c(C)cc2cc1C(c1ccccc1)C(O)(CCN(C)C)c1cccc2ccccc12 (single isomer, unassigned) [Compound 229]		40.09 microgram/ml	7.1			
COc1nc2ccc(-c3ccccc3)cc2cc1C(c1ccccc1)C(O)(CCN(C)C)c1ccccc1 (single isomer, unassigned) [Compound 27]		7.97 microgram/ml	5.9			
COc1ccc2nc(OC)c(C(c3ccccc3)C(O)(CCN(C)C)c3ccccc3)cc2c1 (single isomer, unassigned) [Compound 34]		45.66 microgram/ml	5.1			
COc1nc2cc(Br)ccc2cc1C(c1ccccc1)C(O)(CCN(C)C)c1cccc2ccccc12 (single isomer, unassigned) [Compound 218]		8.80 microgram/ml	6.6			
COc1nc2ccc(C)cc2cc1C(c1ccccc1)C(O)(CCN(C)C)c1ccccc1 (single isomer, unassigned) [Compound 22]		1.11 microgram/ml	7.2			
COc1nc2ccc(Br)cc2cc1C(c1ccccc1)C(O)(CCN)c1ccccc1 (centres unmarked) [Compound 44]		6.01 microgram/ml	5.9			
COc1nc2ccc(Br)cc2cc1C(c1ccccc1)C(O)(CCN1CCCC1)c1ccc2ccccc2c1 (centres unmarked) [Compound 171]		46.19 microgram/ml	4.3			
COc1ccc2cc(C(O)(CCN(C)C)C(c3ccccc3)c3cc4cc(Br)ccc4nc3OC)ccc2c1 (single isomer, unassigned) [Compound 163]		46.51 microgram/ml	5.9			
COc1nc2ccc(Br)cc2cc1C(c1ccccc1)C(O)(CCN(C)C)c1ccc2c(Br)cccc2c1 (single isomer, unassigned) [Compound 127]		25.26 microgram/ml	6.9			
COc1nc2ccc(Br)cc2cc1C(c1ccccc1)C(O)(CCN1CCN(C)CC1)c1ccccc1 (racemic) [Compound 52]		7.06 microgram/ml	6.4			
COc1nc2ccc(Br)cc2cc1C(c1ccccc1)C(O)(CCN(C)C)c1cc(F)ccc1F (centres unmarked) [Compound 110]		0.34 microgram/ml	8.5			
COc1nc2ccc(Br)cc2cc1C(c1ccccc1)C(O)(CCN1CCN(C)CC1)c1cc(Br)cc2ccccc12 (single isomer, unassigned) [Compound 152]		10.93 microgram/ml	5.8			
COc1nc2ccc(Br)cc2cc1C(c1ccccc1)C(O)(CN(C)C)c1ccccc1 (single isomer, unassigned) [Compound 62]		7.79 microgram/ml	5.9			
COc1nc2cc(C)c(Br)cc2cc1C(c1ccccc1)C(O)(CCN(C)C)c1cccc(F)c1 (single isomer, unassigned) [Compound 216]		0.85 microgram/ml	8.0			
COc1nc2ccc(Br)cc2cc1C(c1ccccc1)C(O)(CCN(C)C)c1cc(F)cc(F)c1 (centres unmarked) [Compound 117]		1.71 microgram/ml	6.7			
COc1nc2ccc(Br)cc2cc1C(c1ccc(F)cc1)C(O)(CCN(C)C)c1cccc2ccccc12 (racemic) [Compound 206]		9.09 microgram/ml	6.5			
COc1nc2ccc(Cl)cc2cc1C(c1ccccc1)C(O)(CCN(C)C)c1ccccc1 (single isomer, unassigned) [Compound 30]		1.46 microgram/ml	7.8			
COc1nc2ccc(C#N)cc2cc1C(c1ccccc1)C(O)(CCN(C)C)c1cccc(F)c1 (single isomer, unassigned) [Compound 179]		1.48 microgram/ml	7.0			
COc1nc2cc(C)c(Br)cc2cc1C(c1ccccc1)C(O)(CCN(C)C)c1cccc2ccccc12 (single isomer, unassigned) [Compound 225]		1.80 microgram/ml	6.6			
COc1nc2ccc(Cl)cc2cc1C(c1ccccc1)C(O)(CCN(C)C)c1cccc2ccccc12 (single isomer, unassigned) [Compound 120]		40.60 microgram/ml	5.9			
COc1nc2ccc(Br)cc2cc1C(c1ccccc1)C(O)(CCN1CCCC1)c1ccc2ccccc2c1 (centres unmarked) [Compound 170]			5.6	46.2 µg/mL (≈ 79.4 µM)		
COc1nc2ccc(Br)cc2cc1C(c1ccccc1)C(O)(CCCCN(C)C)c1cccc2ccccc12 (single isomer, unassigned) [Compound 197]		9.25 microgram/ml	6.6			
